System: 349418-098-R tumor spheroid viability
Test: Anticancer human tumor 349418-098-R patient-derived lung adenocarcinoma cell line growth inhibition
Details: spheroids with HUVEC and MSC; for IC50: curve of first compound; for viability, T/C: stronger effect = lower value
Text: Multicellular complex tumor spheroid response to DNA repair inhibitors in combination with DNA-damaging drugs
This study explores the anticancer activities of DNA-damaging drugs and inhibitors of DNA damage repair, both as single agents and in combinations. Complex tumor spheroids comprised of malignant cells, endothelial cells and mesenchymal stem cells served as an in vitro model for human solid tumors. This model system incorporates physiologically relevant features and patient-derived or established malignant cell lines with clinically relevant genetic alterations from many tumor types. Twenty-six patient-derived or established malignant cell lines were evaluated representing sarcoma, melanoma, small cell lung cancer (SCLC), non-small cell lung cancer (NSCLC), as well as bladder, ovarian and pancreatic cancers. The concentration ranges selected for each drug and investigational agent were based upon clinically achievable concentrations if the clinical Cmax of the agent was known.
Compounds. The drugs and compounds olaparib (NSC753686), talazoparib (NSC767125), berzosertib (NSC777718), elimusertib (NSC800525), nedisertib (NSC802822), VX-984 (NSC792969), AZD-1390 (NSC803789), temozolomide (NSC362856), topotecan (NSC609699), trabectedin (NSC813783), staurosporine (NSC755774), and gemcitabine (NSC613327) were obtained from the National Cancer Institute (NCI) Developmental Therapeutics Program Chemical Repository. The FDA-approved anticancer drug set is available from the Developmental Therapeutics Program at https://dtp.cancer.gov/organization/dscb/obtaining/available_plates.htm. […] The stock solutions were prepared in dimethyl sulfoxide (DMSO, Sigma-Aldrich, St. Louis, MO, cat. D2650) at 400-fold the tested concentration and stored at -70 degrees C. Prior to their use, the stock solutions were diluted in fresh medium and the final DMSO concentration in the assay was 0.25% (v/v). All drugs and investigational agents were tested over a range starting from a high concentration at or near the clinical Cmax and decreasing in half-log increments. If the clinical Cmax for an agent had not been determined, the highest concentration tested was 10 microM.
Cell Lines. The patient-derived cancer cell (PDC) lines: 156681-154-R-J1-PDC, 283228-195-R-J1-PDC, 287954-098-R-J1-PDC, 292921-168-R-J2-PDC, 349418-098-R-PDC, 425362-245-T-J1-PDC, 556581-035-R-J1-PDC, and BL0293-F563-PDC were received from the NCI Patient-Derived Models Repository (PDMR, https://pdmr.cancer.gov). The established cell lines HS-SY-2 (RRID:CVCL_8719), MPNST, and SYO-1 (RRID:CVCL_7146) were obtained from the Sloan Kettering Institute. The alveolar soft parts sarcoma cell line ASPS-1 (RRID:CVCL_S738) was established at the NCI and grown from internal seed stocks. The following established cell lines were purchased from the American Type Culture Collection (ATCC, Manassas, VA): G-401 (ATCC, cat. CRL-1441, RRID:CVCL_0270), SW982 (ATCC, cat. HTB-93, RRID:CVCL_1734), VA-ES-BJ (ATCC, cat. CRL-2138, RRID:CVCL_1785), NCI-H719 (ATCC, cat. CRL-5837, RRID:CVCL_1582), NCI-H196 (ATCC, cat. CRL-5823, RRID:CVCL_1509), NCI-H841 (ATCC, cat. CRL-5845, RRID:CVCL_1595), NCI-H1618 (ATCC, cat. CRL-5879, RRID:CVCL_1480), NCI-H1876 (ATCC, cat. CRL-5902, RRID:CVCL_1503), DMS 114 (ATCC, cat. CRL-2066; RRID:CVCL_1174), NCI-H211 (ATCC, cat. CRL-5824; RRID:CVCL_1529), and SW 1271 (ATCC, cat. CRL-2177, RRID:CVCL_1716). The small cell lung cancer cell line COR-L88 was purchased from Sigma-Aldrich (cat. 92031917-1VL, RRID:CVCL_1141). The non-small cell lung cancer cell lines NCI-H226 (RRID:CVCL_1544) and NCI-H322M (RRID:CVCL_1557) were established at the NCI and grown from internal seed stocks. Pooled donor human umbilical vein endothelial cells (HUVEC, Lonza, cat. CC-2519) and human mesenchymal stem cells (hMSC, Lonza, cat. PT-2501) were purchased from Lonza (Walkersville, MD).
Cell Culture. All cells were maintained in an incubator at 37 degrees C and 5% CO2 with 95% humidity. […]

[1] = second compound 1 µM, first compound 0.0316 µM
[2] = second compound 1 µM, first compound 0.1 µM
[3] = second compound 1 µM, first compound 0.316 µM
[4] = second compound 1 µM, first compound 1 µM
[5] = second compound 1 µM, first compound 3.16 µM
[6] = second compound 1 µM, first compound 10 µM
[7] = second compound 3.16 µM, first compound 0.0316 µM
[8] = second compound 3.16 µM, first compound 0.1 µM
[9] = second compound 3.16 µM, first compound 0.316 µM
[10] = second compound 3.16 µM, first compound 1 µM
[11] = second compound 3.16 µM, first compound 3.16 µM
[12] = second compound 3.16 µM, first compound 10 µM
[13] = second compound 10 µM, first compound 0.0316 µM
[14] = second compound 10 µM, first compound 0.1 µM
[15] = second compound 10 µM, first compound 0.316 µM
[16] = second compound 10 µM, first compound 1 µM
[17] = second compound 10 µM, first compound 3.16 µM
[18] = second compound 10 µM, first compound 10 µM
[19] = second compound 31.6 µM, first compound 0.0316 µM
[20] = second compound 31.6 µM, first compound 0.1 µM
[21] = second compound 31.6 µM, first compound 0.316 µM
[22] = second compound 31.6 µM, first compound 1 µM
[23] = second compound 31.6 µM, first compound 3.16 µM
[24] = second compound 31.6 µM, first compound 10 µM
[25] = second compound 100 µM, first compound 0.0316 µM
[26] = second compound 100 µM, first compound 0.1 µM
[27] = second compound 100 µM, first compound 0.316 µM
[28] = second compound 100 µM, first compound 1 µM
[29] = second compound 100 µM, first compound 3.16 µM
[30] = second compound 100 µM, first compound 10 µM
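Note: spheroids exposed to compound for 7 days before measurement.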
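Throughout, for viability, T/C: percent of vehicle control viability with 100% = DMSO-treated spheroids.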

Row | Compound | IC50 (second compound 1 µM) | IC50 (second compound 3.16 µM) | IC50 (second compound 10 µM) | IC50 (second compound 31.6 µM) | IC50 (second compound 100 µM) | viability, T/C [1] | viability, T/C [2] | viability, T/C [3] | viability, T/C [4] | viability, T/C [5] | viability, T/C [6] | viability, T/C [7] | viability, T/C [8] | viability, T/C [9] | viability, T/C [10] | viability, T/C [11] | viability, T/C [12] | viability, T/C [13] | viability, T/C [14] | viability, T/C [15] | also measured
1 | COc1ccc([C@@H](O)c2cc(-c3ncnc4cc(N5CCOCC5)ccc34)c(F)cc2Cl)nn1 + Cn1nnc2c(C(N)=O)ncn2c1=O | 5.61 µM | 5.09 µM | 5.17 µM | 4.27 µM | 3.61 µM | 97.6% | 95.6% | 101% | 97.7% | 73.3% | 26.4% | 103% | 99% | 106% | 102% | 70.1% | 21.3% | 99.8% | 97.5% | 103% | viability, T/C [16]: 104%; viability, T/C [17]: 66%; viability, T/C [18]: 28.5%; viability, T/C [19]: 99.1%; viability, T/C [20]: 104%; viability, T/C [21]: 101%; viability, T/C [22]: 106%; viability, T/C [23]: 59.8%; viability, T/C [24]: 22.2%; viability, T/C [25]: 102%; viability, T/C [26]: 112%; viability, T/C [27]: 107%; viability, T/C [28]: 102%; viability, T/C [29]: 53.4%; viability, T/C [30]: 24.1%
2 | Cc1cc(C)c(CNC(=O)c2cc(-c3ccc(CN4CCOCC4)cc3)cc3c2cnn3C2CCCC2)c(=O)[nH]1 + Cn1nnc2c(C(N)=O)ncn2c1=O | 6.56 µM | 7.44 µM | 7.58 µM | 6.24 µM | 6.24 µM | 98% | 97.6% | 103% | 97.1% | 91.6% | 25.8% | 104% | 102% | 103% | 104% | 92.6% | 35.2% | 97.4% | 106% | 98.7% | viability, T/C [16]: 102%; viability, T/C [17]: 94.3%; viability, T/C [18]: 35.8%; viability, T/C [19]: 99.2%; viability, T/C [20]: 104%; viability, T/C [21]: 99.2%; viability, T/C [22]: 105%; viability, T/C [23]: 91.6%; viability, T/C [24]: 20.5%; viability, T/C [25]: 104%; viability, T/C [26]: 105%; viability, T/C [27]: 103%; viability, T/C [28]: 97.2%; viability, T/C [29]: 91.6%; viability, T/C [30]: 21.5%
